Assay results published in paper PMC12467535 (Biomedicines, 2025).
Where two headings read alike, the source gives them in different places. One block for each substance: values may come before it. No end group written: not given here.

Tests used:
[1] = tested on: IBA1+ inflammatory cells in the retina; test: IBA1+ cell count in retinal flatmounts of CS/HFD apoB100 mice; format: in vivo; conditions: chronic CS/HFD, two IVT injections, p < 0.000001
Method: (§1) At 8 weeks of age, male and female mice were placed in a smoking chamber for 5 h/day, 5 days/week for 6 months following our published protocol.
For retinal and RPE flatmount immunofluorescence confocal microscopy, mice were euthanized and eyes enucleated (7 eyes/treatment group) to be processed for staining for IBA1 (microglia/monocyte marker) and ZO-1 (RPE morphology). The anterior segments were removed, and the retina was carefully separated from the RPE/choroid complex. Tissues were fixed in 2% paraformaldehyde in Tris-buffered saline (TBS) at 4 °C overnight. Retina flatmounts were processed with TBS/1% bovine serum albumin (BSA) and 5% donkey serum overnight at 4 °C. The flatmounts were then incubated with goat polyclonal anti-AIF-1/IBA1 antibody (1:50; Novus biologicals, Centennial, CO, USA) for 48 h at 4 °C, washed, and incubated with donkey anti-goat Cy3 secondary antibody (Abcam, Cambridge, MA, USA) overnight at 4 °C [27]. […] For retinal quadrants, microglia/monocytes/macrophages, defined by IBA1-immunolabeled cell bodies, were counted in five 20 × power fields per flatmount. For RPE/choroid quadrants, each image was used to measure the RPE cell aspect ratio and the average size per cell using ImageJ after setting a threshold as indicated by the software At least 15 cells were measured/experimental group, with n = 5 animals/group, using our previously published protocol.

[2] = tested on: retinal pigment epithelium (RPE); test: Delayed sodium iodate challenge rabbit model, RPE lesion area by fluorescein angiography; format: in vivo, Dutch-belted rabbit; conditions: for protection against sodium iodate-induced lesion (lesion size): no statistically significant difference between the two doses
Method: A 20 mg/mL stock solution of sodium iodate (NaIO3, Sigma Aldrich, St. Louis, MO, USA, Cat#54007) was prepared in sterile 0.9% injectable saline (Cytiva, Marlborough, MA, USA, Z1376), aliquoted into single-use vials, and stored at −20 °C until use. On the day of dosing, aliquots were thawed at room temperature and used immediately. For NaIO3 administration, rabbits were weighed and anesthetized with 2–5% isoflurane (Dechra, Norwich, United Kingdom, 17033-094-25) delivered in medical-grade oxygen at a flow rate of 1.0 to 1.5 L/min via chamber until sedated, then moved to facemask for the injection procedure. The left ear was shaved and disinfected with […] prior to intravenous injection. An indwelling catheter was inserted into the marginal ear vein and flushed with sterile 0.9% injectable saline to ensure patency. Sodium iodate was administered intravenously at a dose of 18 mg/kg body weight, followed by a 0.3 mL saline flush. […] Ten animals were used in each treatment group and 6 animals served as the naïve control group.
Fluorescein angiography was performed following topical anesthesia of the rabbit eyes with proparacaine hydrochloride 0.5% (Akorn, 24208-730-06) and pharmacologic dilation with tropicamide (Akorn, 17478-102-12) and phenylephrine (Akorn, 17478-206-12). The rabbits were anesthetized with isoflurane and the ear was prepared as stated above. A 50 µL bolus of 10% sodium fluorescein (Akorn, 59399-001-04) was injected into the marginal ear vein and allowed to circulate for at least 2 min prior to imaging. Fundus images were captured (Spectralis, Heidelberg Engineering) to document and quantify the extent of visible choroidal and RPE degeneration in both eyes. The area of RPE depigmentation was quantified using ImageJ software (version 1.51j8). In certain cases where the damage extended well into the periphery it was not possible to image the entire edge of the affected area, and these cases were labeled “too large to grade” and were excluded from the final analysis.
With a favorable pharmacokinetic profile, we next evaluated the durability of ONL1204 protection. […] The dose of the systemic sodium iodate had been selected based on a titration that identified a level of systemic sodium iodate that led to localized and quantifiable damage to the rabbit RPE. This damage was assessed one day after sodium iodate administration by quantifying the depigmented lesion area, defined as regions of visible choroid (“window defect”) on fluorescein angiography (Figure 3A,B).

caspase-8 = test: Caspase-8 activity assay in RPE lysates of CS/HFD apoB100 mice; format: in vivo; conditions: chronic CS/HFD, two IVT injections, p < 0.05
Method: as §1
After the retina and RPE/choroid were harvested, protein was extracted using RIPA Buffer (Sigma-Aldrich, St Louis, MO, USA) with Proteinase inhibitor and phosphatase inhibitor. Nine eyes per treatment group were used in this assay, and each sample included 75 μg of protein to standardize the amount of tissue with the Luminescent Caspase-Glow 8 assay kit (Promega, Madison, WI, USA) used according to manufacturer’s protocol. […]

[3] = tested on: retinal pigment epithelium (RPE); test: Chronic CS/HFD apoB100 mouse model of dry AMD, RPE morphology on ZO-1 flatmounts; format: in vivo; conditions: apoB100 mice, 6 months CS/HFD, two IVT injections 6 weeks apart; p < 0.05
Source text: For the mouse study, an equal number of male and female apolipoproteinB100 (apoB100) mice on a C57/S129 background were used. These animals carry a mutation in the editing gene apobec1, resulting in the predominant production of apoB100 in these mice, contrasting to the majority of mice that predominantly produce apoB48 [24]. For all mice strains, the rd8 mutation was bred out. Mice were fed a standard diet until they were put in the smoking chamber and then were fed a high-fat diet (HFD) consisting of 60% fat, 20% protein, and 20% carbohydrate (Research Diets, Inc., New Brunswick, NJ, USA). The study was approved by the Johns Hopkins IACUC. […]
For retinal and RPE flatmount immunofluorescence confocal microscopy, mice were euthanized and eyes enucleated (7 eyes/treatment group) to be processed for staining for IBA1 (microglia/monocyte marker) and ZO-1 (RPE morphology). […] For retinal quadrants, microglia/monocytes/macrophages, defined by IBA1-immunolabeled cell bodies, were counted in five 20 × power fields per flatmount. For RPE/choroid quadrants, each image was used to measure the RPE cell aspect ratio and the average size per cell using ImageJ after setting a threshold as indicated by the software At least 15 cells were measured/experimental group, with n = 5 animals/group, using our previously published protocol.

in vivo [4] = conditions: Dutch-belted, rabbit
Source text: (§2) Prior to injection, each eye was moistened with an ophthalmic Betadine solution, which was then washed out of the eyes with sterile saline. Then, 0.5% proparacaine was applied to the ocular surface prior to the injection.
(§3) For both studies, animals were euthanized at the indicated time points. Eyes were enucleated, snap frozen in liquid nitrogen, and stored frozen until dissection for collection of vitreous, retina, and RPE/choroid for bioanalysis. […] For statistical determination, all values that were below the lower limit of quantification (LLOQ) were considered zero. Pharmacokinetic analysis was performed from the composite concentration versus time data generated for ocular tissue samples through Day 84 using Phoenix WinNonlin (version 8.5.2.4) software.

[5] = rabbit, in vivo
Source text: as §2, §3

[6] = minipig, in vivo
Method: (§4) Prior to the IVT injection, a combination of 100 mg Telazol, 50 mg ketamine, and 50 mg xylazine per mL of solution was administered via intramuscular injection at 0.03–0.06 mL/kg. For two animals, dexmedetomidine (0.02 or 0.03 mg/kg) was administered as a supplementary anesthetic via intramuscular injection. Proparacaine was then administered to eye, followed by tropicamide. The area surrounding the eye was swabbed with an ophthalmic Betadine solution.
as §3

[7] = human, in vivo; cited from earlier work
[8] = minipig, in vivo; remark: listed apart in the source
Method: as §4, §3

in vivo [9] = conditions: Göttingen, minipig
Method: as §4, §3

GA lesion growth = tested on: GA lesion growth; design: method as in PMID 37696275, PMID 37865470; conditions: patients with geographic atrophy, after one year of treatment, relative to sham; range given for either agent; cited from earlier work
[10] = 10 ug/eye, Average concentration of ONL1204 in RPE/choroid
[11] = 10 ug/eye, Average concentration of ONL1204 in retina
[12] = 50 ug/eye, Average concentration of ONL1204 in RPE/choroid
[13] = 50 ug/eye, Average concentration of ONL1204 in retina
[14] = 100 ug/eye, Average concentration of ONL1204 in RPE/choroid
[15] = 100 ug/eye, Average concentration of ONL1204 in retina
[16] = 200 ug/eye, Average concentration of ONL1204 in RPE/choroid
[17] = 200 ug/eye, Average concentration of ONL1204 in retina
[18] = 300 ug/eye, Average concentration of ONL1204 in RPE/choroid
[19] = 300 ug/eye, Average concentration of ONL1204 in retina

Substance: HHIYLGAVNYIY-NH2 (C-terminus assumed) [ONL1204]
- IBA1+ inflammatory cell infiltration in the retina vs vehicle [1]: decreased
- protection against sodium iodate-induced lesion (lesion size) ([2]; single IVT 25 µg on Day 0, sodium iodate 18 mg/kg i.v. on Day 4): comparable levels of protection
- protection against sodium iodate-induced lesion (lesion size) ([2]; single IVT 100 µg on Day 0, sodium iodate 18 mg/kg i.v. on Day 4): comparable levels of protection
- lesion area vs vehicle-treated controls and 25 µg group ([2]; single IVT 100 µg on Day 0, sodium iodate on Day 14): significantly smaller lesion areas
- lesion area vs vehicle-treated controls and 25 µg group ([2]; single IVT 100 µg on Day 0, sodium iodate on Day 28): significantly smaller lesion areas
- Caspase-8 activity in whole RPE lysates vs vehicle (caspase-8): significantly reduced
- posterior RPE cell area vs vehicle [3]: significantly lower than the control

- tissue level at time at 24 h (in vivo [4]; [10]): 5.45 ng/g
- tissue level at time at 672 h (in vivo [4]; [10]): 10.5 ng/g
- tissue level at time at 1344 h (in vivo [4]; [10]): 144 ng/g
- tissue level at time at 1992 h (in vivo [4]; [10]): 213 ± 207 ng/g
- tissue level at time at 24 h (in vivo [4]; [11]): 11.2 ± 8.4 ng/g
- tissue level at time at 672 h (in vivo [4]; [11]): 51 ± 97.9 ng/g
- tissue level at time at 1344 h (in vivo [4]; [11]): 14.3 ± 15.1 ng/g
- tissue level at time at 24 h (in vivo [4]; [12]): 58 ± 79.8 ng/g
- tissue level at time at 672 h (in vivo [4]; [12]): 92.4 ng/g
- tissue level at time at 1344 h (in vivo [4]; [12]): 61.8 ng/g
- tissue level at time at 1992 h (in vivo [4]; [12]): 209 ± 251 ng/g
- tissue level at time at 24 h (in vivo [4]; [13]): 75.6 ± 144 ng/g
- tissue level at time at 672 h (in vivo [4]; [13]): 27 ± 36.6 ng/g
- tissue level at time at 1344 h (in vivo [4]; [13]): 37.8 ± 48.4 ng/g
- tissue level at time at 1992 h (in vivo [4]; [13]): 201 ± 268 ng/g
- tissue level at time at 24 h (in vivo [4]; [14]): 174 ± 149 ng/g
- tissue level at time at 672 h (in vivo [4]; [14]): 40.6 ng/g
- tissue level at time at 1344 h (in vivo [4]; [14]): 36.2 ± 41 ng/g
- tissue level at time at 24 h (in vivo [4]; [15]): 183 ± 346 ng/g
- tissue level at time at 672 h (in vivo [4]; [15]): 42.3 ± 72.1 ng/g
- tissue level at time at 1344 h (in vivo [4]; [15]): 22.7 ± 27.9 ng/g
- tissue level at time at 1992 h (in vivo [4]; [15]): 86.1 ± 103 ng/g
- half-life ([5]; 10 ug, calculated vitreous half-life): 147 days
- half-life ([5]; 50 ug, calculated vitreous half-life): 116 days
- half-life ([5]; 100 ug, calculated vitreous half-life): 124 days
- half-life ([5]; vitreous humor half-life): > 100 days
- half-life calculated from the vitreous humor data [6]: 117.18 days
- half-life ([8]; half-life calculated from the vitreous humor data): 112 days
- half-life ([8]; vitreous humor half-life): > 100 days
- stability in plasma: rapidly broken down by peptidases
- tissue level at time at 144 h (in vivo [9]; [16]): 189 ± 160 ng/g
- tissue level at time at 672 h (in vivo [9]; [16]): 66.5 ± 87.8 ng/g
- tissue level at time at 2112 h (in vivo [9]; [16]): 38.2 ± 21.7 ng/g
- tissue level at time at 144 h (in vivo [9]; [17]): 17.8 ± 27.3 ng/g
- tissue level at time at 672 h (in vivo [9]; [17]): 2.05 ng/g
- tissue level at time at 144 h (in vivo [9]; [18]): 101 ± 91.4 ng/g
- tissue level at time at 672 h (in vivo [9]; [18]): 82.4 ± 34.5 ng/g
- tissue level at time at 2112 h (in vivo [9]; [18]): 29.8 ng/g
- tissue level at time at 144 h (in vivo [9]; [19]): 7.2 ± 6.37 ng/g
- tissue level at time at 672 h (in vivo [9]; [19]): 23.8 ± 16.4 ng/g
Substance: HHIYLGAVNYIY-NH2 [ONL1204]
- safety in Phase 1 clinical trial [7]: safe

Substance: avacincaptad pegol
- reduction of the rate of GA lesion growth (GA lesion growth): 14–26%

Substance: pegcetacoplan
- reduction of the rate of GA lesion growth (GA lesion growth): 14–26%
